In patent US7799794B2, “Treatment for cardiovascular disease” (Merck Sharp & Dohme Corp., priority 2000, dated 2010):
Marks after values point to notes of the source that are not given here.

How the values were obtained:
[1] = tested on: Sprague-Dawley rats; assay: Renal findings at 7 weeks: immunohistochemistry and BUN (Example 2); assay type: in vivo, rat; conditions: low NaCl diet
Protocol: Rats were placed on a low sodium diet (NaCl, 0.125%) with or without 2% oxonic acid for 7 weeks. A third group were administered allopurinol in the drinking water (150 mg/L) with weekly adjustments of the dose depending on the uric acid level.
(§1) Am J Clin Pathol 1957; 28:152.]. Serum blood urea nitrogen was measured by a standard kit (Sigma, St Louis, Mo.).
Renal biopsies were fixed in Methyl-Carnoy's, 10% formalin or 100% ethanol and embedded in paraffin. The presence of uric acid crystals was evaluated by staining 4-μm ethanol-fixed sections with de Galantha and modified Von Kossa stains. Kidney tissue from rats with acute uric acid nephropathy, induced with oxonic acid and uric acid administration was used as a positive control [Stavric, B., Johnson, W. J., and Grice, H. C., Uric acid nephropathy: An experimental model, Proc. Soc. Exp. Biol. Med. 130: 512-16 (1969).]. Light microscopy was performed in 4-μm sections of Methyl-Carnoy's fixed tissue stained with periodic acid Schiff (PAS) reagent or with hematoxylin and eosin.
Methyl-Carnoy's fixed tissue sections were analyzed by indirect immunoperoxidase [Lombardi, D., Gordon , K. L., Polinsky, P., Suga, S., Schwartz, S. M., and Johnson, R. J. Salt sensitive hypertension develops after transient exposure to angiotensin II. Hypertension 33:1013-1019, 1999] staining with the following primary antibodies: OP199, a goat polyclonal antibody against osteopontin (OPN)(gift of C. Giachelli, Univ of Wash., Seattle); ED-1, a monoclonal antibody to rat monocytes and macrophages (Serotec); goat antihuman type III collagen (Southern Biotechnology Associates Inc, Birminghan Ala.); and anti-renin, a mouse antibody to human renin (Sanofi Recherche, Montpellier, France). Sections were incubated with a secondary antibody followed by horseradish peroxidase-conjugated avidin D (Vector Laboratories, Burlingame, Calif.), diaminobenzidine (Sigma) with or without nickel chloride as a chromogen, and counsterstained with methyl green.
NOS1 was detected on formalin fixed tissue sections with a rabbit anti-rat neuronal nitric oxide synthase (Transduction Laboratories, Lexington, Ky.), followed by a biotinylated secondary antibody, diaminobenzidine with nickel chloride and counterstained with nuclear fast red.
All quantification was performed blinded. The tubular expression of osteopontin (OPN), which is a sensitive marker of tubulointerstitial injury, was calculated as the percent of renal cortex occupied by OPN-positive tubules [Lombardi, D., Gordon, K. L., Polinsky, P., Suga, S., Schwartz, S. M., and Johnson, R. J. Salt sensitive hypertension develops after transient exposure to angiotensin II. Hypertension 33:1013-1019, 1999]. Utilizing computer-assisted image analysis software (Optimas V6.2, Media Cybernetics, Silver Springs, Md.) and digitized images, the percent of area occupied by OPN positive tubules per 4 mm^2 field at a magnification of 50× was measured and the mean percent area calculated for each biopsy. The interstitial deposition of collagen type III was calculated as the % of renal cortex occupied by collagen III, noted by immunostaining, by computer image analysis. The mean number of interstitial macrophages (ED-1+cells) in each biopsy was calculated in a blinded manner by counting the total number of positive interstitial cortical cells in 20 sequentially selected 0.25 mm^2 grids at 200× magnification. Renin expression was quantified by the number of glomeruli with positive staining for juxtaglomerular renin using a minimum of 100 glomeruli in each biopsy as previously described [Eng, E., et al., Renal proliferation and phenotypic changes in rats with two-kidney, one-clip Goldblatt hypertension. Am J Hypertens 7:177-185 (1994)]; this has been shown previously to correlate with intrarenal renin content[Eng, E., et al., Renal proliferation and phenotypic changes in rats with two-kidney, one-clip Goldblatt hypertension. Am J Hypertens 7:177-185 (1994)]. […]

[2] = tested on: Sprague-Dawley rats; assay: Cyclosporine nephropathy with or without oxonic acid: body weight, renal function, uric acid, CSA level (Example 5); conditions: 7 weeks
Protocol: Studies were conducted in 20 adult male Sprague-Dawley rats (Simmonsen Laboratories, Gilroy, Calif., USA) weighing 200 to 250 grams. All rats were fed a low salt diet (0.125% NaCl)(Zeigler Bros, Gardners, Pa.), with water ad libitum. […] In order to induce hyperuricemia, oxonic acid 2% was added to low salt diet. Because rats have uricase, an hepatic enzyme which degrades uric acid to allantoin, the blockade of this enzyme by oxonic acid is necessary.
After 7 weeks, rats were placed in individual metabolic cages for 24-hour urine collection. The following day, rats were anesthetized with xylazine and ketamine, serum was collected for creatinine and uric acid measurements, and both kidneys were obtained for histology evaluation. Biopsies were fixed in 10% formalin, 100% ethanol or Methyl Camoy's.
Serum and urine creatinine were measured by a standard picric acid method (Sigma Diagnostics creatinine kit, St. Louis, Mo.). Serum and urine uric acid were measured by a modified carbonate-phosphotungstate method [Henry, R. J., Sobel, C., and Kim, J., A modified carbonate phosphotungstate method for the determination of uric acid and comparison with the spectophotometric uricase method. Am J Clin Pathol 1957; 28:152.]. Fractional uric acid excretion and creatinine clearance were calculated by standard formulas.
All values are expressed as mean±SD, unless otherwise stated. The differences between groups were compared with unpaired Student's t tests.

[3] = tested on: Sprague-Dawley rats; assay: Enalapril or L-Arginine in hyperuricemic rats on low salt diet: blood pressure (Example 4); assay type: in vivo, rat; conditions: hyperuricemic control rats, OA + low salt diet
Protocol: Rats were placed on either low salt diet, low salt diet with 2% oxonic acid, low salt diet with oxonic acid and enalapril (1 mg/kg/d in drinking water), or low salt diet with oxonic acid and L-Arginine (1% in drinking water).
(§2) Am J Physiol 268:F1 164-76, 1995].

[4] = tested on: Sprague-Dawley rats; assay: Allopurinol intervention or oxonic acid withdrawal in hyperuricemic rats: blood pressure (Example 3); assay type: in vivo, rat; conditions: oxonic acid withdrawn at 7 weeks, LSD continued
Description: Rats were placed on the low sodium diet with oxonic acid for 7 weeks, and then were matched based on uric acid level and blood pressure in various groups to either receive allopurinol, have the oxonic acid withdrawn from the diet, or continue the oxonic acid/low salt diet. A control group of six rats were placed on the lowsodium diet alone for 11 weeks. All of these rats were sacrificed at week 11.
as §2, §1

## O=C(O)c1nc(=O)[nH]c(=O)[nH]1 [oxonic acid]
[1]; control 39.6 ± 2.0
  Renin: 60.9 ± 1.5 % positive JGA
[1]; control 147.2 ± 12.4
  NOS-1: 80.4 ± 4.3 positive cells/100 glomeruli
[1]; mean±SE, control 0.9 ± 0.06
  OPN: 1.8 ± 0.06 % increase
[1]; mean±SE, control 5.4 ± 0.3
  Type III collagen: 8.8 ± 1.5 %
[1]; mean±SE, control 14.4 ± 1.2
  BUN: 23.2 ± 2.3 mg/dL
[1]; mean±SE, control 18.3 ± 1.3
  ED-1 (macrophages): 27.2 ± 1.9 cells/mm2
[2]; 24-hour urine, vehicle 2.19 ± 0.66
  urinary uric acid: 5.06 ± 2.81^a mg/day
[2]; mean±SD, vehicle 1.62 ± 0.31
  Serum Uric Acid: 4.08 ± 1.22^a mg/dl
[2]; mean±SD, vehicle 422.2 ± 31.2
  Weight: 421.2 ± 28.8 grams
[2]; vehicle 0.12 ± 0.06
  FE urate (fractional excretion of uric acid): 0.11 ± 0.14
[2]; vehicle 0.20 ± 0.08
  Urate/creatinine (urine): 0.35 ± 0.27
[2]; vehicle 0.94 ± 0.24
  Serum Creatinine: 0.88 ± 0.19 mg/dL
[2]; vehicle 1.39 ± 0.73
  Creatnine Clearance: 1.94 ± 0.73 mL/min
[3]
  increase in systolic blood pressure over the 7 week dietary period: approximately 20 mm Hg
[4]
  blood pressure and serum uric acid in hypertensive, hyperuricemic rats: reduction in the blood pressure in association with a fall in serum uric acid values
